This is an account of results in US4695647A, “Aromatic derivatives of 13-azaprostanoic acid” (Drug Science Foundation, priority 1984, dated 1987).

One data set deals with human platelets. Nature of the data set: Inhibition of U46619-induced human platelet aggregation. In kind it is cell-based. The note with it: for IC50: Homo sapiens, Platelet, 1 min. How it is done:
Platelet rich plasma was prepared from four healthy, normal volunteers using standard techniques.
Platelets were aggregated with U46619 (0.5 to 1.0 μM) to produce an
average % aggregation at one minute of 61.3 ± 3.1. The ID50 value
were calculated based on the inhibition of U46619 induced aggregation one
minute after its addition.
Platelets were aggregated with U46619 (0.09 to 0.65 μM) to produce an
average % aggregation at one minute of 47 ± 3. The ID50 values
The potency of PTA-OH and PTA-OM for antagonism of U46619 induced human platelet aggregation was determined as described above.

In the next data set the test system is endotoxic shock. Nature of the data set: Protection against endotoxic shock (Salmonella endotoxin). In kind it is in vivo, young male Long-Evans rats. The text has this: Based on the protective biological response observed and the absence of change in plasma thromboxane levels, it is concluded that trans-13 APT is a thromboxane receptor antagonist.
Data set [1] relates to platelet aggregation. The settings on record: 13-APA itself, stated as background for comparison; cited from earlier work.
Another data set is described as follows: Solubility. In kind it is physicochemical.
Data set [2] has as its system platelet aggregation. Nature of the data set: U46619 and arachidonic acid-induced platelet aggregation. The format is cell-based, human. How it is done:
Compound A was prepared in a manner analogous to 13 APA itself, i.e., by borohydride reduction of the Schiff base obtained from the reaction of tyramine and ethyl-2-oxo-cyclopentane-heptanoate. This reaction produces about equal amounts of the cis and trans ethyl esters, which were separated on preparative silica gel TLC and subsequently hydrolyzed to the free acids by refluxing in aqueous NaOH.

A further data set relates to canine saphenous veins. Briefly: Antagonism of vascular smooth muscle contraction in canine saphenous veins. In kind it is cell-based.
[3] abbreviates: Table I, U46619 0.5 to 1.0 μM, average % aggregation at one minute 61.3 ± 3.1, indomethacin 10 μM, one minute preincubation, platelet rich plasma, read-out: ID50 (the source's name).
Setting [4] is: Table 2, U46619 0.09 to 0.65 μM, average % aggregation at one minute 47 ± 3, indomethacin 10 μM, one minute preincubation, read-out: ID50 (the source's name).
Where [5] appears, read: 30 mg/kg i.p., vs vehicle pretreated animals.
[6] abbreviates: pinane analogs, determined as described above, read-out: ID50 (antagonism of U46619 induced human platelet aggregation).

Entries after “also recorded” stand apart in the source; their conditions may differ. Where two headings read alike, the source gives them in different places.

Take `CCCCCCCN[C@H]1CCC[C@H]1CCCCCCC(=O)O` (relative stereo) [13-cis-azaprostanoic acid, reference compound]: in the data set on human platelets (setting [3]), the IC50 turned out to be 14.8 ± 2.2 µM. Turning to `O=C(O)CCCCCC[C@H]1CCC[C@H]1NCC(O)c1ccc(O)c(I)c1` (relative stereo) [13-cis-iodo APO], in the data set with human platelets (setting [4]), the IC50 came to 9.8 ± 1.3 µM. Consider `CCCCCCCN[C@@H]1CCC[C@H]1CCCCCCC(=O)O` (relative stereo) [13-trans-azaprostanoic acid, reference compound], for which the IC50 in the data set with human platelets (setting [3]) amounted to 13.6 ± 1.9 µM.

As for `O=C(O)CCCCCC[C@@H]1CCC[C@@H]1NCCc1ccc(O)cc1` (relative stereo) [Compound 13-cis-APT, 7-(2-p-hydroxphenethylamino-cyclopentyl)-heptanoic acid], the IC50 in the data set with human platelets (setting [3]) is 17.6 ± 4.4 µM. Regarding `O=C(O)CCCCCC[C@@H]1CCC[C@H]1NCCc1ccc(O)cc1` (relative stereo) [Compound 13-trans-APT, 7-(2-p-hydroxphenethylamino-cyclopentyl)-heptanoic acid], the “plasma thromboxane B2 levels” value in the data set on endotoxic shock (30 mg/kg i.p., 30 minutes and four hours after endotoxin, vs vehicle) was “elevated to the same degree”. Further, in the data set on endotoxic shock (setting [5]), the 6-keto-PGF1α levels result is given as “significantly lower”; the “endotoxic shock as measured by hypoglycemia, thrombocytopenia and tissue infarct effects” value is recorded as “less subject to endotoxic shock”. For the same molecule, the “protection against endotoxic shock” value with endotoxic shock (30 mg/kg, intraperitoneal pretreatment, endotoxin intravenously) was “protected against endotoxic shock”. In addition, the “protection against pathophysiologic sequelae of S. enteritidis endotoxemia” value in the data set on endotoxic shock (30 mg/kg, rats) is listed as “effective in protecting rats”. Further, in the data set with human platelets (setting [3]), the IC50 is 9.9 ± 1.7 µM.

On to `CCCCCCCN[C@H]1CCC[C@@H]1CCCCCCC(=O)O` [Compound 13-APA, 13-Azaprostanoic acid], for which the “relative potency of isomers” value with platelet aggregation [1] was “much more potent as the trans form”.

In the case of `O=C(O)CCCCCC[C@@H]1CCC[C@@H]1NCC(O)c1ccc(O)cc1` (stereo partly drawn) [Compound 13-cis-APO, 7-(2-p-hydroxyphenylethanolamino-cyclopentyl)-heptanoic acid], the IC50 with human platelets (setting [4]) amounted to 6.4 ± 0.7 µM; in the data set on human platelets (setting [3]) it was 16 ± 3.2 µM. For `O=C(O)CCCCCC[C@@H]1CCC[C@H]1NCC(O)c1ccc(O)cc1` (stereo partly drawn) [Compound 13-trans-APO, 7-(2-p-hydroxyphenylethanolamino-cyclopentyl)-heptanoic acid], in the data set on human platelets (setting [3]), the IC50 is 8.3 ± 1.4 µM. For the same molecule, the solubility in ethanol entry in the data set “Solubility” is given as “practically insoluble”. For the molecule `O=C(O)CCCCCCC1CCCC1NCCc1ccc(O)cc1` (stereo not drawn) [Compound A, 7-(2-p-hydroxyphenethylamino-cyclopenthyl)-heptanoic acid], the “activity and relative potency of isomers in platelet aggregation” value in the data set with platelet aggregation [2] is recorded as “the two isomers were active, with the trans more potent than the cis; also recorded: significantly more potent than the parent 13-APA”. Regarding `CC1(C)C2CC(NCC(O)Cc3ccc(O)cc3)C(C/C=C\CCCC(=O)O)C1C2` (stereo not drawn) [PTA-OH, 13-aza-16-(p-hydroxyphenyl) pinane TxA2], the “relative potency as inhibitor of human platelet aggregation” value in the data set with human platelets is on record as “more potent than 13-aza-16-(p-methoxyphenyl) pinane TxA2 (PTA-OM)”. The IC50 in the data set on human platelets (setting [6]) was found to be 0.52 ± 0.07 µM. On to `COc1ccc(CC(O)CNC2CC3CC(C2C/C=C\CCCC(=O)O)C3(C)C)cc1` (stereo not drawn) [PTA-OM, 13-aza-16-(p-methoxyphenyl) pinane TxA2], for which the IC50 in the data set on human platelets (setting [6]) is 1.56 ± 0.35 µM. In the data set on canine saphenous veins, the “relative potency as antagonist of vascular smooth muscle contraction” value is listed as “more potent than PTA-OH”. With `CC1(C)C2CC(NCC(O)Cc3ccc(O)c(I)c3)C(C/C=C\CCCC(=O)O)C1C2` (stereo not drawn) [^127 I-PTA-OH], in the data set with human platelets (setting [6]), the IC50 stood at 0.38 ± 0.05 µM.
